Experimental data as given in paper PMC6838683, “Discovery of Human Signaling Systems: Pairing Peptides to G Protein-Coupled Receptors” (Cell, 2019).
Residues, ends and D or L forms follow the SMILES beside them.

Assays:
Assay type in all cases: cell-based
BB3 [1] = target: T1, BB3 (Homo sapiens, UniProt P32247); test: Real-time receptor internalization (TR-FRET), concentration-response
T1 construct: hIL-2Ra signal peptide (N); expressed in transfected cells
T1 sequence (P32247 2-399 limits assumed): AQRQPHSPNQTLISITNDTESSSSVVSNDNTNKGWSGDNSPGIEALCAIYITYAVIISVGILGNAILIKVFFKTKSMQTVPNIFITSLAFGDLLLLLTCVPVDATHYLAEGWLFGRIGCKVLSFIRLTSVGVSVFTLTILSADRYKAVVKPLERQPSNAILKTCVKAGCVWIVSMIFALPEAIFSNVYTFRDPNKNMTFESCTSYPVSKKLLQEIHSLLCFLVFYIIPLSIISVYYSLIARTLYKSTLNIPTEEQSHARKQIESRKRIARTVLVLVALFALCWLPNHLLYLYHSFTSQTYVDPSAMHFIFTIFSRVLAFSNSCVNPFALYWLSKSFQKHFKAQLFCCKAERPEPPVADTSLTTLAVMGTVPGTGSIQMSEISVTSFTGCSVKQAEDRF

BB3 [2] = target: T1, BB3; test: Dynamic mass redistribution (DMR), concentration-response
BB3 [3] = target: T1, BB3; test: IP1 accumulation (Gq/11), HTRF
[4] = receptor BB3, mean, SEM and n (3), read-out: Internalization assays pEC50 (converted)
[5] = DMR assays pEC50, receptor BB3, mean, SEM and n (3)
[6] = IP1 accumulation assays pEC50, receptor BB3, mean, SEM and n (2-4)
[7] = receptor BB3, mean, SEM and n (3), read-out: DMR assays pEC50 (converted)
[8] = receptor BB3, mean, SEM and n (2-4), read-out: IP1 accumulation assays pEC50 (converted)
[9] = receptor BB3, mean, SEM and n (3)
[10] = receptor BB3, mean, SEM and n (2-4)

CSCC[C@H](NC(=O)[C@H](Cc1ccccc1)NC(=O)[C@H](Cc1cnc[nH]1)NC(=O)CNC(=O)[C@@H](NC(=O)[C@H](C)NC(=O)[C@H](Cc1c[nH]c2ccccc12)NC(=O)[C@H](CC(C)C)NC(=O)[C@H](CC(N)=O)NC(=O)CN)[C@@H](C)O)C(N)=O [59 resynthesized]
EC50 (BB3 [1]; [4]): 1550 nM
EC50 (BB3 [2]; [5]): 27.5 nM
EC50 (BB3 [3]; [6]): 525 nM

CC[C@H](C)[C@H](NC(=O)[C@H](CCCCN)NC(=O)[C@H](CO)NC(=O)[C@H](C)NC(=O)[C@H](CCCNC(=N)N)NC(=O)[C@H](CO)NC(=O)[C@H](CCCNC(=N)N)NC(=O)[C@@H]1CCCN1C(=O)[C@H](CCC(=O)O)NC(=O)[C@@H]1CCCN1C(=O)[C@H](CC(C)C)NC(=O)[C@H](CC(=O)O)NC(=O)[C@H](Cc1c[nH]c2ccccc12)NC(=O)[C@H](CO)NC(=O)[C@H](CC(C)C)NC(=O)[C@@H]1CCCN1C(=O)[C@H](C)N)C(=O)N[C@@H](CCCNC(=N)N)C(=O)N[C@H](C(=O)N[C@@H](Cc1c[nH]cn1)C(=O)N[C@@H](CO)C(=O)N[C@@H](CCCNC(=N)N)C(=O)NCC(=O)N[C@@H](CC(N)=O)C(=O)N[C@@H](CC(C)C)C(=O)N[C@@H](Cc1c[nH]c2ccccc12)C(=O)N[C@@H](C)C(=O)N[C@H](C(=O)NCC(=O)N[C@@H](Cc1c[nH]cn1)C(=O)N[C@@H](Cc1ccccc1)C(=O)N[C@@H](CCSC)C(N)=O)[C@@H](C)O)C(C)C [59.1 (Phoenix)] (H-APLSWDLPEPRSRASKIRVHSRGNLWATGHFM-NH2)
EC50 (BB3 [1]; [4]): 646 nM
EC50 (BB3 [2]; [7]): 49 nM
EC50 (BB3 [3]; [8]): 224 nM

CC(C)C[C@H](NC(=O)[C@H](CCCCN)NC(=O)[C@H](CCC(N)=O)NC(=O)[C@@H](NC(=O)[C@H](CCCCN)NC(=O)[C@H](CO)NC(=O)[C@H](Cc1ccc(O)cc1)NC(=O)[C@H](Cc1c[nH]cn1)NC(=O)[C@H](Cc1ccccc1)NC(=O)[C@H](CC(C)C)NC(=O)[C@@H](N)Cc1ccccc1)[C@@H](C)O)C(N)=O [67 resynthesized] (H-FLFHYSKTQKL-NH2)
EC50 (BB3 [1]; [4]): 34700 nM
EC50 (BB3 [2]; [7]): 2690 nM
EC50 (BB3 [3]; [8]): 1660 nM

CSCC[C@H](NC(=O)[C@H](Cc1ccccc1)NC(=O)CNC(=O)CNC(=O)[C@@H](N)Cc1ccc(O)cc1)C(=O)N[C@@H](CCCNC(=N)N)C(=O)N[C@@H](CCCNC(=N)N)C(=O)N[C@H](C(=O)NCC(=O)N[C@@H](CCCNC(=N)N)C(=O)N1CCC[C@H]1C(=O)N[C@@H](CCC(=O)O)C(=O)N[C@@H](Cc1c[nH]c2ccccc12)C(=O)N[C@@H](Cc1c[nH]c2ccccc12)C(=O)N[C@@H](CCSC)C(=O)N[C@@H](CC(=O)O)C(=O)N[C@@H](Cc1ccc(O)cc1)C(=O)N[C@@H](CCC(N)=O)C(=O)N[C@@H](CCCCN)C(=O)N[C@@H](CCCNC(=N)N)C(=O)N[C@@H](Cc1ccc(O)cc1)C(=O)NCC(=O)NCC(=O)N[C@@H](Cc1ccccc1)C(=O)N[C@@H](CC(C)C)C(=O)O)C(C)C [158 resynthesized] (H-YGGFMRRVGRPEWWMDYQKRYGGFL-OH)
EC50 (BB3 [1]; Internalization assays pEC50): 3890 nM
EC50 (BB3 [2]; [5]): 110000 nM
EC50 (BB3 [3]; [6]): 3720 nM

CC(C)C[C@H](NC(=O)[C@H](Cc1ccccc1)NC(=O)CNC(=O)CNC(=O)[C@@H](N)Cc1ccc(O)cc1)C(=O)O [158.2 (Phoenix)]
EC50 (BB3 [1]): 4680 nM
EC50 (BB3 [2]): 245 nM
EC50 (BB3 [3]): 15.8 nM

CC(C)C[C@H](NC(=O)[C@H](CCCCN)NC(=O)[C@H](CCC(N)=O)NC(=O)[C@@H](NC(=O)[C@H](CCCCN)NC(=O)[C@H](CO)NC(=O)[C@H](Cc1ccc(O)cc1)NC(=O)[C@H](Cc1c[nH]cn1)NC(=O)[C@H](Cc1ccccc1)NC(=O)[C@H](CC(C)C)NC(=O)[C@@H](N)Cc1ccccc1)[C@@H](C)O)C(N)=O [Neuromedin U pre-pro_(1-11)] (H-FLFHYSKTQKL-NH2)
EC50 (BB3 [1]; BB3, mean, SEM and n, read-out: pEC50, Internalization (AUC) (converted)): 31600 nM
EC50 (BB3 [2]; BB3, mean, SEM and n, read-out: pEC50, DMR (peak) (converted)): 2290 nM
EC50 (BB3 [3]; BB3, mean, SEM and n, read-out: pEC50, IP1 (converted)): 2190 nM

CSCC[C@H](NC(=O)[C@H](CCCNC(=N)N)NC(=O)[C@H](CCCNC(=N)N)NC(=O)[C@H](CCC(=O)O)NC(=O)[C@H](Cc1c[nH]cn1)NC(=O)[C@H](CC(C)C)NC(=O)[C@H](Cc1c[nH]cn1)NC(=O)[C@@H]1CCCN1C(=O)[C@@H](NC(=O)[C@H](CC(C)C)NC(=O)[C@H](CCC(N)=O)NC(=O)[C@H](CC(C)C)NC(=O)[C@H](CC(C)C)NC(=O)[C@@H]1CCCN1C(=O)[C@H](Cc1c[nH]cn1)NC(=O)[C@@H](NC(=O)[C@@H](NC(=O)[C@H](CO)NC(=O)[C@H](CO)NC(=O)[C@@H](NC(=O)[C@@H](NC(=O)[C@H](CC(N)=O)NC(=O)[C@H](CO)NC(=O)[C@H](CCCCN)NC(=O)CNC(=O)[C@H](CC(C)C)NC(=O)[C@H](CCCCN)NC(=O)[C@H](CCC(N)=O)NC(=O)[C@@H](NC(=O)[C@H](CCCCN)NC(=O)[C@H](CO)NC(=O)[C@H](Cc1ccc(O)cc1)NC(=O)[C@H](Cc1c[nH]cn1)NC(=O)[C@H](Cc1ccccc1)NC(=O)[C@H](CC(C)C)NC(=O)[C@@H](N)Cc1ccccc1)[C@@H](C)O)C(C)C)C(C)C)C(C)C)C(C)C)C(C)C)C(=O)O [Peptide 67.2] (H-FLFHYSKTQKLGKSNVVSSVVHPLLQLVPHLHERRM-OH)
EC50 (BB3 [2]; [7]): 38000 nM
EC50 (BB3 [3]; [8]): 1170 nM

CC(C)C[C@H](NC(=O)[C@H](CCCCN)NC(=O)[C@H](CCC(N)=O)NC(=O)[C@@H](NC(=O)[C@H](CCCCN)NC(=O)[C@H](CO)NC(=O)[C@H](Cc1ccc(O)cc1)NC(=O)[C@H](Cc1c[nH]cn1)NC(=O)[C@H](Cc1ccccc1)NC(=O)[C@H](CC(C)C)NC(=O)[C@@H](N)Cc1ccccc1)[C@@H](C)O)C(N)=O [Peptide 67] (H-FLFHYSKTQKL-NH2; N-terminus assumed)
EC50 (BB3 [1]; SNAP-tagged BB3 in Flp-In T-REx 293 cells, TR-FRET 60 min, 37°C, AUC, mean ± SEM of 3-4 independent experiments in triplicate, read-out: pEC50, internalization, BB3 (converted)): > 10000 nM

CSCC[C@H](NC(=O)[C@H](Cc1ccccc1)NC(=O)CNC(=O)CNC(=O)[C@@H](N)Cc1ccc(O)cc1)C(=O)N[C@@H](CCCNC(=N)N)C(=O)N[C@@H](CCCNC(=N)N)C(=O)N[C@H](C(N)=O)C(C)C [Peptide 158.3]
EC50 (BB3 [2]; [5]): 15500 nM
EC50 (BB3 [3]; [6]): 89.1 nM

CSCC[C@H](NC(=O)[C@H](Cc1c[nH]c2ccccc12)NC(=O)[C@H](Cc1c[nH]c2ccccc12)NC(=O)[C@H](CCC(=O)O)NC(=O)[C@@H]1CCCN1C(=O)[C@H](CCCNC(=N)N)NC(=O)CNC(=O)[C@@H](N)C(C)C)C(=O)N[C@@H](CC(=O)O)C(=O)N[C@@H](Cc1ccc(O)cc1)C(=O)N[C@@H](CCC(N)=O)C(=O)N[C@@H](CCCCN)C(=O)N[C@@H](CCCNC(=N)N)C(=O)N[C@@H](Cc1ccc(O)cc1)C(=O)NCC(=O)NCC(=O)N[C@@H](Cc1ccccc1)C(=O)N[C@@H](CC(C)C)C(=O)O [Peptide 158.4] (H-VGRPEWWMDYQKRYGGFL-OH)
EC50 (BB3 [1]): 10200 nM
EC50 (BB3 [2]): 8710 nM
EC50 (BB3 [3]): 16200 nM

CSCC[C@H](NC(=O)[C@H](Cc1ccccc1)NC(=O)CNC(=O)CNC(=O)[C@@H](N)Cc1ccc(O)cc1)C(=O)N[C@@H](CCCNC(=N)N)C(=O)N[C@@H](CCCNC(=N)N)C(=O)N[C@H](C(=O)NCC(=O)N[C@@H](CCCNC(=N)N)C(=O)N1CCC[C@H]1C(=O)N[C@@H](CCC(=O)O)C(=O)N[C@@H](Cc1c[nH]c2ccccc12)C(=O)N[C@@H](Cc1c[nH]c2ccccc12)C(=O)N[C@@H](CCSC)C(=O)N[C@@H](CC(=O)O)C(=O)N[C@@H](Cc1ccc(O)cc1)C(=O)N[C@@H](CCC(N)=O)C(=O)O)C(C)C [Peptide 158.5] (H-YGGFMRRVGRPEWWMDYQ-OH)
EC50 (BB3 [2]; [5]): 69200 nM
EC50 (BB3 [3]; [6]): 100 nM

CSCC[C@H](NC(=O)[C@H](Cc1c[nH]c2ccccc12)NC(=O)[C@H](Cc1c[nH]c2ccccc12)NC(=O)[C@H](CCC(=O)O)NC(=O)[C@@H]1CCCN1)C(=O)N[C@@H](CC(=O)O)C(=O)N[C@@H](Cc1ccc(O)cc1)C(=O)N[C@@H](CCC(N)=O)C(=O)N[C@@H](CCCCN)C(=O)N[C@@H](CCCNC(=N)N)C(=O)N[C@@H](Cc1ccc(O)cc1)C(=O)NCC(=O)NCC(=O)N[C@@H](Cc1ccccc1)C(=O)N[C@@H](CC(C)C)C(=O)O [Peptide 158.6] (H-PEWWMDYQKRYGGFL-OH)
EC50 (BB3 [1]): 9550 nM
EC50 (BB3 [2]): 832 nM
EC50 (BB3 [3]): 31600 nM

FLFHYSKTQKL [67 original]
Internalization assays Emax (AUC) (BB3 [1]; [9]): 14.6
DMR assays Emax (peak or AUC) (BB3 [2]; [9]): 199
IP1 accumulation assays Emax (BB3 [3]; [10]): 62.1 nM

YGGFMRRVGRPEWWMDYQKRYGGFL [158 original]
Internalization assays Emax (AUC) (BB3 [1]; [9]): 16.0
IP1 accumulation assays Emax (BB3 [3]; [10]): 164.0 nM
